Measured values reported in patent US12187709B2 (Genentech, Inc., priority 2021, dated 2025).

Key:
Cbl-b = Cbl-b (Homo sapiens (Human), UniProt Q13191); assay: Cbl-b LCK Ub TR-FRET assay (Cbl-b Lck HTRF); assay type: biochemical; conditions: for IC50: Cbl-b LCK Ub TR-FRET; for fold-selectivity (Cbl-b over C-cbl): ratio C-cbl Lck HTRF IC50 / Cbl-b Lck HTRF IC50
Experimental: (§1) 6 μL of detection mixture was added to all wells and briefly centrifuged before incubating for 20 min at room temperature. […] IC50 was generated using no LCK as the low control and DMSO as the high control.

c-Cbl = c-Cbl (Homo sapiens (Human), UniProt P22681); assay: C-Cbl LCK Ub TR-FRET assay (C-cbl Lck HTRF); assay type: biochemical
Chain of c-Cbl (P22681 47-435): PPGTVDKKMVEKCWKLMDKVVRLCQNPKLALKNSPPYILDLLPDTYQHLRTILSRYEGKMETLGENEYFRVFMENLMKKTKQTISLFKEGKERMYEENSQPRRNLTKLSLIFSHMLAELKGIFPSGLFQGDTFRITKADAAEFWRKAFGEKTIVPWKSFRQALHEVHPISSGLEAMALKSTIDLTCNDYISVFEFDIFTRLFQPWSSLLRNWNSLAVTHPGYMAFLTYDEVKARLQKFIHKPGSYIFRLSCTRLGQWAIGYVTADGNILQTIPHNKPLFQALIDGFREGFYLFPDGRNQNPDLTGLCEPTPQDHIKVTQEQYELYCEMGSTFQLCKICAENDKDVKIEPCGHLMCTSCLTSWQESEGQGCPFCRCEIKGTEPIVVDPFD
Experimental: as §1

Chain of Cbl-b (Q13191 40-426): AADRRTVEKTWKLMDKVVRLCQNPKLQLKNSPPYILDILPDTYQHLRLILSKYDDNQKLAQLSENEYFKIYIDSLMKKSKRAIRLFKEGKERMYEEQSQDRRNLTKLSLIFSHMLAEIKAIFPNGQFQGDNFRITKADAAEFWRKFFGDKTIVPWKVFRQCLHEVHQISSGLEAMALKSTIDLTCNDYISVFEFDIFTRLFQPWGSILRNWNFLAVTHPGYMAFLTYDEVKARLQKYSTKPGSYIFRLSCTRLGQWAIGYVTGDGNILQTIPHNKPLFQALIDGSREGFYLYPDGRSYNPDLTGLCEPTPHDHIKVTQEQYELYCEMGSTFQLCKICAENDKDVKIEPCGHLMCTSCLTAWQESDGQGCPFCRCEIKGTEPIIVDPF

SMILES	IC50 (Cbl-b) [µM]	fold-selectivity (Cbl-b over C-cbl) (Cbl-b)	IC50 (c-Cbl) [µM]
Cn1cnnc1[C@H](c1cccc(N2Cc3c(cc(CNC4(C)CCC4)cc3C(F)(F)F)C2=O)c1)N1CC(F)(F)C1 (single isomer, unassigned) [Compound 56]	1	(6.7x)	6.7
Cn1cnnc1[C@@H](c1cccc(N2Cc3c(cc(CNC4(C)CCC4)cc3C(F)(F)F)C2=O)c1)N1CC(F)(F)C1 (single isomer, unassigned) [Compound 57]	10	(1.9x)	19
Cn1cnnc1[C@@]1(c2cccc(N3Cc4c(cc(CNC5(C)CCC5)cc4C(F)(F)F)C3=O)c2)CCC(F)(F)C1 (single isomer, unassigned) [Compound 106]	0.023	3.5x	0.081
Cc1cnnn1[C@H](c1cccc(N2Cc3c(cc(CNC4(C)CCC4)cc3C(F)(F)F)C2=O)c1)C1COC1 (single isomer, unassigned) [Compound 136]	≥ 20	1.0x	20
Cn1cnnc1[C@](O)(c1cccc(N2Cc3c(cc(CNC4(C)CCC4)cc3C(F)(F)F)C2=O)c1)C1COC1 (single isomer, unassigned) [Compound 144]	4.5	1.6x	8.2
Cn1cnnc1[C@@H](c1cccc(N2Cc3c(cc(CNC4(C)CCC4)cc3C(F)(F)F)C2=O)c1)C1(O)COC1 (single isomer, unassigned) [Compound 146]	4	2.3x	9.2
Cn1cnnc1C(F)(c1cccc(N2Cc3c(cc(CNC4(C)CCC4)cc3C(F)(F)F)C2=O)c1)C1COC1 (single isomer, unassigned) [Compound 151]	3.8	2.1x	7.9
Cn1cnnc1[C@](O)(c1ccccc1)c1cccc(N2Cc3c(cc(CNC4(C)CCC4)cc3C(F)(F)F)C2=O)c1 (single isomer, unassigned) [Compound 154]	≥ 20	1.0x	20
Cn1cnnc1[C@@](O)(c1ccccc1)c1cccc(N2Cc3c(cc(CNC4(C)CCC4)cc3C(F)(F)F)C2=O)c1 (single isomer, unassigned) [Compound 155]	10	2.0x	10
Cn1cnnc1[C@](F)(c1ccccc1)c1cccc(N2Cc3c(cc(CNC4(C)CCC4)cc3C(F)(F)F)C2=O)c1 (single isomer, unassigned) [Compound 156]	7.7	2.4x	18
Cn1cnnc1[C@@](F)(c1ccccc1)c1cccc(N2Cc3c(cc(CNC4(C)CCC4)cc3C(F)(F)F)C2=O)c1 (single isomer, unassigned) [Compound 157]	≥ 20	1.0 x	20
Cn1cnnc1[C@H](c1ccccc1)c1cccc(N2Cc3c(Cl)cc(CNC4(C)CCC4)cc3C2=O)c1 (single isomer, unassigned) [Compound 158]	1.4	3.6 x	5
Cn1cnnc1[C@@H](c1ccccc1)c1cccc(N2Cc3c(Cl)cc(CNC4(C)CCC4)cc3C2=O)c1 (single isomer, unassigned) [Compound 159]	≥ 20	1.0x	20
Cn1cnnc1[C@]1(c2cccc(N3Cc4c(cc(CNC5(C)CCC5)cc4C(F)(F)F)C3=O)c2)C[C@H]([S@+](C)[O-])C1 (single isomer, unassigned) [Compound 162]	9.1	2.1x	20
Cn1cnnc1[C@]1(c2cccc(N3Cc4c(cc(CNC5(C)CCC5)cc4C(F)(F)F)C3=O)c2)C[C@@H]([S@@+](C)[O-])C1 (single isomer, unassigned) [Compound 163]	≥ 20	1.0x	20
Cn1cnnc1[C@H](c1cccc(N2Cc3c(cc(CNC4(C)CCC4)cc3C(F)(F)F)C2=O)c1)C1COC1 (single isomer, unassigned) [Compound 165]	3.9	2.3 x	10
Cn1cnnc1[C@H](c1cccc(N2Cc3c(cc(CNC4(C)CCC4)cc3C(F)(F)F)C2=O)c1)C1CCCCC1 (single isomer, unassigned) [Compound 251]	0.88	1.0x	0.89
Cn1cnnc1[C@H](CC1CCOCC1)c1cccc(N2Cc3c(cc(CNC4(C)CCC4)cc3C(F)(F)F)C2=O)c1 (single isomer, unassigned) [Compound 252]	9.1	1.4x	13
Cn1cnnc1[C@@H](c1cccc(N2Cc3c(cc(CNC4(C)CCC4)cc3C(F)(F)F)C2=O)c1)C1CC(OCC(F)F)C1 (single isomer, unassigned) [Compound 261]	1.3	3.5x	4.5

SMILES	IC50 (Cbl-b) [µM]	fold-selectivity (Cbl-b over C-cbl) (Cbl-b)	IC50 (c-Cbl) [µM]
CCOC1CC([C@H](c2cccc(N3Cc4c(cc(CNC5(C)CCC5)cc4C(F)(F)F)C3=O)c2)c2nncn2C)C1 (single isomer, unassigned) [Compound 264]	5.1	3.9x	≥ 20
CCOC1CC([C@@H](c2cccc(N3Cc4c(cc(CNC5(C)CCC5)cc4C(F)(F)F)C3=O)c2)c2nncn2C)C1 (single isomer, unassigned) [Compound 266]	6.7	3.0x	≥ 20
Cn1cnnc1[C@H](c1cccc(N2Cc3c(Cl)cc(CNC4(C)CCC4)cc3C2=O)c1)C1COC1 (single isomer, unassigned) [Compound 271]	1.8	2.6x	4.3
Cn1cnnc1[C@@H](C[C@H]1COCCO1)c1cccc(N2Cc3c(cc(CNC4(C)CCC4)cc3C(F)(F)F)C2=O)c1 (single isomer, unassigned) [Compound 295]	–	1.0x	20
Cn1cnnc1[C@](F)(c1ccccc1)c1cccc(N2Cc3c(Cl)cc(CNC4(C)CCC4)cc3C2=O)c1 (single isomer, unassigned) [Compound 321]	≥ 20	1.0x	20
Cn1cnnc1[C@@](F)(c1ccccc1)c1cccc(N2Cc3c(Cl)cc(CNC4(C)CCC4)cc3C2=O)c1 (single isomer, unassigned) [Compound 322]	10	2.0x	20
Cc1cc([C@H](c2nncn2C)C2COC2)cc(N2Cc3c(cc(CNC4(C)CCC4)cc3C(F)(F)F)C2=O)c1 (single isomer, unassigned) [Compound 332]	16	1.3x	20
COc1cc([C@H](c2nncn2C)C2COC2)cc(N2Cc3c(cc(CNC4(C)CCC4)cc3C(F)(F)F)C2=O)c1 (single isomer, unassigned) [Compound 338]	3.8	1.6x	6
Cn1cnnc1[C@@H](c1cccc(N2Cc3c(cc(CNC4(C)CCC4)cc3C(F)(F)F)C2=O)c1)n1ccnc1 (single isomer, unassigned) [Compound 344]	≥ 20	1x	20
Cn1nnnc1[C@H](c1cccc(N2Cc3c(cc(CNC4(C)CCC4)cc3C(F)(F)F)C2=O)c1)C1COC1 (single isomer, unassigned) [Compound 349]	≥ 20	1x	20
Cn1ccnc1[C@H](c1cccc(N2Cc3c(cc(CNC4(C)CCC4)cc3C(F)(F)F)C2=O)c1)C1COC1 (single isomer, unassigned) [Compound 353]	9.6	2.1x	20
Cn1cnnc1C(c1cccc(N2Cc3c(cc(CNC4(C)CCC4)cc3C(F)(F)F)C2=O)c1)[C@H]1C[C@@H](Cl)C1 (single isomer, unassigned) [Compound 354]	0.07	8.3x	0.58
Cn1cnnc1C(c1cccc(N2Cc3c(cc(CNC4(C)CCC4)cc3C(F)(F)F)C2=O)c1)[C@H]1C[C@H](Cl)C1 (single isomer, unassigned) [Compound 355]	0.15	13x	2
CC[C@H](c1cccc(N2Cc3c(Cl)cc(CNC4(C)CCC4)cc3C2=O)c1)c1nncn1C (single isomer, unassigned) [Compound 358]	0.14	3.5x	0.48
CO[C@H]1C[C@](O)(C(c2cccc(N3Cc4c(cc(CNC5(C)CCC5)cc4C(F)(F)F)C3=O)c2)c2nncn2C)C1 (single isomer, unassigned) [Compound 367]	7.1	1.7x	12
CO[C@H]1C[C@](O)(C(c2cccc(N3Cc4c(cc(CNC5(C)CCC5)cc4C(F)(F)F)C3=O)c2)c2nncn2C)C1 (single isomer, unassigned) [Compound 368]	4	1.6x	6.4
CC[C@](O)(c1cccc(N2Cc3c(cc(CNC4(C)CCC4)cc3C(F)(F)F)C2=O)c1)c1nncn1C (single isomer, unassigned) [Compound 391]	0.85	1.0x	0.86
Cn1cnnc1[C@H](c1cccc(N2Cc3c(cc(CNC4(C)CCC4)cc3C(F)(F)F)C2=O)c1)C1CC(OC(F)(F)F)C1 (single isomer, unassigned) [Compound 396]	0.1	1.7x	0.17
